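Following 48 hours of exposure in 96-well plates, responses at five concentrations were used to interpolate endpoints linearly. Here, GI50 denotes the concentration required for 50% inhibition of growth. TGI: concentration producing complete growth inhibition.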
Assays:
Test in all cases: NCI anticancer screen, dose series, 48 h
OVCAR-3 ovarian = tested on: OVCAR-3 ovarian
DU-145 prostate = tested on: DU-145 prostate
UO-31 renal = tested on: UO-31 renal
HS 578T breast = tested on: HS 578T breast
SNB-75 CNS = tested on: SNB-75 CNS
OVCAR-5 ovarian = tested on: OVCAR-5 ovarian
OVCAR-8 ovarian = tested on: OVCAR-8 ovarian
A498 renal = tested on: A498 renal
SR leukemia = tested on: SR leukemia

SMILES	TGI (OVCAR-3 ovarian) [µM]	TGI (DU-145 prostate) [µM]	TGI (UO-31 renal) [µM]	TGI (HS 578T breast) [µM]	TGI (SNB-75 CNS) [µM]	TGI (OVCAR-5 ovarian) [µM]	TGI (OVCAR-8 ovarian) [µM]	TGI (A498 renal) [µM]	TGI (SR leukemia) [µM]	GI50 (OVCAR-3 ovarian) [µM]	GI50 (DU-145 prostate) [µM]	GI50 (A498 renal) [µM]	GI50 (UO-31 renal) [µM]	GI50 (HS 578T breast) [µM]	GI50 (SNB-75 CNS) [µM]	GI50 (OVCAR-5 ovarian) [µM]	GI50 (OVCAR-8 ovarian) [µM]
COc1ccc(C(SC2C(O)C(CO)OC2n2ccc(=O)[nH]c2=O)(c2ccccc2)c2ccc(OC)cc2)cc1 (configuration not stated)	37.1	34.4	33.4	53.6	48.9	39.7	45.5	–	–	–	–	–	–	–	–	–	–
CC(C)(C)n1c(=O)[nH]c(=O)n1C(C)(C)C	> 100	–	> 100	> 100	> 100	> 100	> 100	> 100	> 100	–	–	–	–	–	–	–	–
CCOC(=O)c1cc(C)nc2c1c(=O)n(-c1ccccc1)c(=O)n2CCCCN1CCN(c2ccccc2)CC1	–	> 100	65.2	> 100	> 100	> 100	> 100	> 100	48.4	–	–	–	–	–	–	–	–
CN(Cc1cnc2nc(N)nc(N)c2n1)c1ccc(C(=O)NC(CO)CCCO)cc1 (configuration not stated)	> 100	> 100	> 100	> 100	> 100	> 100	> 100	> 100	> 100	–	–	–	–	–	–	–	–
c1ccc(/C(=N/Nc2ccncn2)c2ccccn2)cc1	32.5	> 100	67.3	29.9	57.8	> 100	50.2	–	> 100	–	–	–	–	–	–	–	–
Cc1ccc(S(=O)(=O)Nn2c(O)c(C#N)c(-c3ccc(Cl)cc3)c(C#N)c2=O)cc1	–	–	–	> 100	> 100	> 100	> 100	> 100	–	–	–	–	–	–	–	–	–
C=CC[n+]1c2ccccc2n2cc([N+](=O)[O-])ccc21	69.7	> 100	> 100	–	> 100	> 100	86.2	55	–	–	–	–	–	–	–	–	–
CC1(C)CC(=O)C2(CC(CSc3ccccc3)C(CS(=O)(=O)c3ccccc3)C2)C(=O)C1 (configuration not stated)	> 100	> 100	> 100	> 100	> 100	> 100	> 100	> 100	–	–	–	–	–	–	–	–	–
COc1ccc(OC)c(SC(CC(=O)c2ccccc2)c2ccccc2)c1 (configuration not stated)	16.4	21.9	24.7	68.3	33.6	33.5	28.7	–	> 100	–	–	–	–	–	–	–	–
O=C(O)COc1cc(-c2ccccc2)nc2cc(F)ccc12	> 100	> 100	> 100	> 100	> 100	> 100	> 100	> 100	> 100	–	–	–	–	–	–	–	–
O=c1c(-c2ccccc2)c(SCCO)n(-c2ccccc2)c(=S)n1-c1ccccc1	> 100	> 100	> 100	> 100	> 100	> 100	> 100	–	> 100	–	–	–	–	–	–	–	–
O=[N+]([O-])c1cccc(N=Nc2c(O)c(S(=O)(=O)O)cc3cc(S(=O)(=O)O)ccc23)c1	> 100	> 100	> 100	> 100	> 100	> 100	> 100	> 100	> 100	–	–	–	–	–	–	–	–
Cc1ccc(S(=O)CC(CF)OCn2cc(C)c(=O)[nH]c2=O)cc1 (configuration not stated)	> 100	> 100	> 100	> 100	> 100	> 100	> 100	–	> 100	–	–	–	–	–	–	–	–
C/C(=N\Nc1nc2cc(C(F)(F)F)ccc2s1)c1ccccn1	8.85	3.98	4.89	14.6	11.3	23.4	1.93	7.61	–	–	–	–	–	–	–	–	–
COc1cc(C2C(Cl)C(=O)N2c2c(C)n(C)n(-c3ccccc3)c2=O)ccc1O (configuration not stated)	> 100	> 100	32.9	–	–	42.7	43.9	–	58.6	–	–	–	–	–	–	–	–
O=c1oc(C(C(F)(F)F)C(F)(F)F)nc2ccccc12	> 100	–	> 100	–	–	> 100	> 100	> 100	> 100	–	–	–	–	–	–	–	–
CC(C)(C)CC(C)(C)c1cc(O)c(O)c(CN2CCCCC2)c1	28	30.5	26.1	41.3	37.3	31.8	33.1	27.3	–	–	–	–	–	–	–	–	–
COC[C@@H](N=Cc1ccc([N+](=O)[O-])cc1)C(C)C	–	> 100	> 100	> 100	> 100	> 100	> 100	–	> 100	–	–	–	–	–	–	–	–
C=C=C(CC(CC(=C)Br)(C(=O)OC)C(=O)OC)S(=O)(=O)c1ccccc1	4.98	3.35	3.69	6.37	20.5	3.43	3.44	14.7	–	–	–	–	–	–	–	–	–
COc1cnc2c(c1)C(=O)c1c-2n(CCCNCCO)c(=O)c2ccncc12	9.73	6.73	10.1	10.7	4.2	20.5	23.7	2.62	–	2.26	1.36	0.772	1.3	2.32	1.13	2.74	0.876
COc1ccc(-c2oc3cc(O)cc(O)c3c(=O)c2OC)cc1	60.9	> 100	56.6	–	–	> 100	> 100	66.8	> 100	–	–	–	–	–	–	–	–
COc1cc2cc(C(=O)N3CC(COS(C)(=O)=O)c4ccc(O)cc43)[nH]c2c(OC)c1OC (configuration not stated)	0.000616	0.000845	< 0.0001	0.000872	0.00149	0.0428	0.149	–	–	–	–	–	–	–	–	–	–
Nc1ccc(S(=O)(=O)Nc2nc3ccccc3nc2N2CCCCCC2)cc1	40.2	> 100	40.8	> 100	> 100	> 100	> 100	–	> 100	–	–	–	–	–	–	–	–
O=C(O)c1ccccc1N=Cc1ccc(N(CCCl)CCCl)cc1	> 100	–	> 100	–	> 100	> 100	> 100	> 57.7	–	–	–	–	–	–	–	–	–
O=C(Cc1ccc(Cl)c(Cl)c1)NCC1(N2CCCCC2)CCCCC1	> 100	> 100	> 100	> 100	–	> 100	> 100	> 100	> 100	–	–	–	–	–	–	–	–

Source: PubChem BioAssay (NCI)
